{"source": "patent US20100291010A1", "about": "“NOVEL ESTERS AND COMPOSITIONS AND USES THEREOF” (INNOSPEC LIMITED, priority 2007, published 2010)", "excerpt": "These two sunscreens are difficult to dissolve and keep in solution for use in sunscreen formulations for optimal SPF (Sun-Protection Factors). Higher solvency for a sunscreen ingredient is described as it allows higher concentrations of the sunscreen active ingredient in a formulation. […] The liquid organic sunscreens that are commonly used as octylsalicylate (OS) and octyl-methoxycinnamate (OMC).", "data": [{"smiles": "COc1ccc(C(=O)c2ccccc2)c(O)c1", "note": "[Benzophenone-3, 2 hydroxy-4-methoxybenzophenone]", "values": [{"measurement": "Solubility in Finester LP (%)", "value": 10, "unit": "%"}, {"measurement": "Solubility in Finsolv TN (%)", "value": 15, "unit": "%"}]}]}
